Drawing on ChEMBL document CHEMBL5291721, “A preclinical secondary pharmacology resource illuminates target-adverse drug reaction associations of marketed drugs” (Nat Commun, 2023), this text covers AC50 for 30 compounds.

Some results are limits rather than exact numbers.

One test concerns the target T1, Endothelin-1 receptor (Homo sapiens, UniProt P25101).
T1 sequence (P25101 whole entry): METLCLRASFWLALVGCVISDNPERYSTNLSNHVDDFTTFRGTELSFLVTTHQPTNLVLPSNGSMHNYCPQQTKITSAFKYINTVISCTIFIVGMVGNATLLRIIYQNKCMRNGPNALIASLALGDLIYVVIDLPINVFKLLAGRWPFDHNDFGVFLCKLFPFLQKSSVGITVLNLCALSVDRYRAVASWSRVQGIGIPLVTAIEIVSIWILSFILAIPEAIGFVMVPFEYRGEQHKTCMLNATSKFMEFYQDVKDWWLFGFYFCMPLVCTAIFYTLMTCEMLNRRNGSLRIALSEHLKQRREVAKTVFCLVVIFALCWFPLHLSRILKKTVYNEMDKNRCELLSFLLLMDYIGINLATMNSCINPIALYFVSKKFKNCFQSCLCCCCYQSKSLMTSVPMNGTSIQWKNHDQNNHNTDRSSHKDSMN

Test [1] concerns the target T2, 5-hydroxytryptamine receptor 1A (Homo sapiens, UniProt P08908).
T2 sequence (P08908 whole entry): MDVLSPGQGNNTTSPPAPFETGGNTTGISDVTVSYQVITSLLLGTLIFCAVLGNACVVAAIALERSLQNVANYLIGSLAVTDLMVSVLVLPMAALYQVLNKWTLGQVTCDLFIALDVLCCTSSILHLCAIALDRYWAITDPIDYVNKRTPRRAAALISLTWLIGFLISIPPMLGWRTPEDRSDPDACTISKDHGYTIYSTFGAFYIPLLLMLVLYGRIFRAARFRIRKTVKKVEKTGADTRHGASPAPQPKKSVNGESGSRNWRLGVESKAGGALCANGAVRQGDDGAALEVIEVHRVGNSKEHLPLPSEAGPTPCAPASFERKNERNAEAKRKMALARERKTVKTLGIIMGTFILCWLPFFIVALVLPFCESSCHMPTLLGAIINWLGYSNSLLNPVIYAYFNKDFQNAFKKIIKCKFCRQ
The class given is functional, cell-based.

For test [2], the target named is Voltage-dependent L-type calcium channel subunit alpha-1C (Rattus norvegicus, UniProt P22002). The class given is functional.
The target in another test is T3, Glucocorticoid receptor (Homo sapiens, UniProt P04150).
T3 sequence (P04150 whole entry): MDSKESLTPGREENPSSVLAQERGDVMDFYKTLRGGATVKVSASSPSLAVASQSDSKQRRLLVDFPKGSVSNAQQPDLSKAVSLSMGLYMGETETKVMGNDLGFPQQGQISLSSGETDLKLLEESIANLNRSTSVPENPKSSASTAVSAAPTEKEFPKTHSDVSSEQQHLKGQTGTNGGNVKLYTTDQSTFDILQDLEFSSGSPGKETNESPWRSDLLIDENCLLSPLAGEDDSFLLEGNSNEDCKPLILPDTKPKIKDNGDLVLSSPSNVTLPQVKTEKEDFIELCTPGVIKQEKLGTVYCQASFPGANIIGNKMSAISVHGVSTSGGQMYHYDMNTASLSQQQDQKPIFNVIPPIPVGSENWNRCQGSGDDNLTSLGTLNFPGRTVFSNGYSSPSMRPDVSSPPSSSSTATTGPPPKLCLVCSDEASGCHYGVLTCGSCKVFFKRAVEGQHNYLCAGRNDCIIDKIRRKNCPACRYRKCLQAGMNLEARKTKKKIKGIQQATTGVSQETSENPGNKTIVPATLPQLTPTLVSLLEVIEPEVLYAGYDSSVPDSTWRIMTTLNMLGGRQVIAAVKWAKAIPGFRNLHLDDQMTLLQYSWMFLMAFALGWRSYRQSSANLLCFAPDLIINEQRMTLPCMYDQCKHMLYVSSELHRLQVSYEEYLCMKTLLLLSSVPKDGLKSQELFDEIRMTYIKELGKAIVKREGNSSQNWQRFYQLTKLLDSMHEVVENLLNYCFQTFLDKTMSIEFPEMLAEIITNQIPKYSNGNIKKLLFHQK

The next test has as its target Acetylcholinesterase (Homo sapiens, UniProt P22303). The class given is functional.
A further test concerns the target D(1A) dopamine receptor (Homo sapiens, UniProt P21728).
Another test addresses T4, Progesterone receptor (Homo sapiens, UniProt P06401).
T4 sequence (P06401 whole entry): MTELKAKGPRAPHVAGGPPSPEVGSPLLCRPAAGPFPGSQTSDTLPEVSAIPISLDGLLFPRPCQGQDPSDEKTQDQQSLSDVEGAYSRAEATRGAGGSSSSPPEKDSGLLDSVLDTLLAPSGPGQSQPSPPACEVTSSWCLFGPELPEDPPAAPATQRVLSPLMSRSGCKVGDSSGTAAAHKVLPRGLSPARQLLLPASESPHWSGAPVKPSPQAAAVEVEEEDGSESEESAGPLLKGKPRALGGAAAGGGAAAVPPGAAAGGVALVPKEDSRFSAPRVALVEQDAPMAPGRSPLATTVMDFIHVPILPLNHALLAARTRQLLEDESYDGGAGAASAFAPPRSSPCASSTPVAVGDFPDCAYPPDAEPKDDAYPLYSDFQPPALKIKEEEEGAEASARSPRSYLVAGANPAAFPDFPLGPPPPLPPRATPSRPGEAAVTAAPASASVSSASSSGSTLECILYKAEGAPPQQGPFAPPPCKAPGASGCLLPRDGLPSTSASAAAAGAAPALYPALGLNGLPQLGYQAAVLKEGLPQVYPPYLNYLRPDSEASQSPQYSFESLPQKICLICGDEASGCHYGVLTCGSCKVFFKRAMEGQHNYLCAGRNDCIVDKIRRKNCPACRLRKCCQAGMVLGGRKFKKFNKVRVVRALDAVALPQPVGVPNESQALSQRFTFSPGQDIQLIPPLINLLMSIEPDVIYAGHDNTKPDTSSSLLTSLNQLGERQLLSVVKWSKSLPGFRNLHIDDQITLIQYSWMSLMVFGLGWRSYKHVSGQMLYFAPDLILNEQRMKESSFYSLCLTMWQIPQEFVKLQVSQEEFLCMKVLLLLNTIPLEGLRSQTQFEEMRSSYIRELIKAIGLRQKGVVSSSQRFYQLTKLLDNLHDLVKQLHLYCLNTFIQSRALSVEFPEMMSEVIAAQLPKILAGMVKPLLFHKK

In test [3] the target is Sodium-dependent dopamine transporter (Homo sapiens, UniProt Q01959).
Note: assay procedure not described here.

Sequence of Acetylcholinesterase (P22303 whole entry): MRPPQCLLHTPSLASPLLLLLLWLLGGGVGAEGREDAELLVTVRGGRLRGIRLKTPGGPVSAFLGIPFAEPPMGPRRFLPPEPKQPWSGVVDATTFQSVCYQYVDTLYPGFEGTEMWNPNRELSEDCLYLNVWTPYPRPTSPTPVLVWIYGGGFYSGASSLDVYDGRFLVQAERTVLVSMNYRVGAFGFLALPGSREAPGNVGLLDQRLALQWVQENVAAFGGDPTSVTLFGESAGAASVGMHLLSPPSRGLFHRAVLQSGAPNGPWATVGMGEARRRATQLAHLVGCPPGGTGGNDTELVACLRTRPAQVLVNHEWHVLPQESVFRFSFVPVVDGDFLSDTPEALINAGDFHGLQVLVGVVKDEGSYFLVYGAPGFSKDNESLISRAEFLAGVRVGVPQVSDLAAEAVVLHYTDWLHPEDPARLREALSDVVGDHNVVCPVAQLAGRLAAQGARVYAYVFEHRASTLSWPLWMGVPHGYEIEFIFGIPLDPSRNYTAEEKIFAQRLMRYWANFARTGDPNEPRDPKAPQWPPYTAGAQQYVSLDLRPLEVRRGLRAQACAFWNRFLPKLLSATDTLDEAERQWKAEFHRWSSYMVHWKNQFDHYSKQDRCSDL
Sequence of Sodium-dependent dopamine transporter (Q01959 whole entry): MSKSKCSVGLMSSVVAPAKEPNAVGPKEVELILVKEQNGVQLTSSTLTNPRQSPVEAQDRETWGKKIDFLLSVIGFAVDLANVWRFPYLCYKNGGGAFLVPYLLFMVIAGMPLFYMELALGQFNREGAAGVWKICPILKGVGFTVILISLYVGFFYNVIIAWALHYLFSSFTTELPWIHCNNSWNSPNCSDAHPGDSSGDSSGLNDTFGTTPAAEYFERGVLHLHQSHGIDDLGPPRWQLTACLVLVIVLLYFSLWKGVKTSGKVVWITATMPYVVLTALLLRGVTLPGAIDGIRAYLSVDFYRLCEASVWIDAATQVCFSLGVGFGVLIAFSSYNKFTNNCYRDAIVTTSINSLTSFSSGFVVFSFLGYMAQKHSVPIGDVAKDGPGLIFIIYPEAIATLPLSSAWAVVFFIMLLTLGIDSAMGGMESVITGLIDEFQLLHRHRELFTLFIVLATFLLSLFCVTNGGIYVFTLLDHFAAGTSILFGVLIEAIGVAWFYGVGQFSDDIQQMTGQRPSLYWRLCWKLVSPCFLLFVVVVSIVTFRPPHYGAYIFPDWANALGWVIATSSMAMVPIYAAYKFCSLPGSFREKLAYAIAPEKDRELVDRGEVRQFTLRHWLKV
Sequence of D(1A) dopamine receptor (P21728 whole entry): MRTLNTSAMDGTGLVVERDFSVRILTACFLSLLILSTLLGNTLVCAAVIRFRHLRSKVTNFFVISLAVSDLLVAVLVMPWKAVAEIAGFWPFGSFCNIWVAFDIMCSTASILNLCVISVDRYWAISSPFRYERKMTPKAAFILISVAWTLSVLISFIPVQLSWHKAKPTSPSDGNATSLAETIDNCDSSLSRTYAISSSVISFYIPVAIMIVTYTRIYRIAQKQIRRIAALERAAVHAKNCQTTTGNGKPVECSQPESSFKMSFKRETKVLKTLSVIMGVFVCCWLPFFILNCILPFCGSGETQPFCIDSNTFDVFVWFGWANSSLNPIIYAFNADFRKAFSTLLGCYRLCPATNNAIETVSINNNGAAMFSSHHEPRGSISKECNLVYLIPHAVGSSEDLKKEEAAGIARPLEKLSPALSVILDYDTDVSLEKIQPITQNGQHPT
Sequence of Voltage-dependent L-type calcium channel subunit alpha-1C (P22002 whole entry): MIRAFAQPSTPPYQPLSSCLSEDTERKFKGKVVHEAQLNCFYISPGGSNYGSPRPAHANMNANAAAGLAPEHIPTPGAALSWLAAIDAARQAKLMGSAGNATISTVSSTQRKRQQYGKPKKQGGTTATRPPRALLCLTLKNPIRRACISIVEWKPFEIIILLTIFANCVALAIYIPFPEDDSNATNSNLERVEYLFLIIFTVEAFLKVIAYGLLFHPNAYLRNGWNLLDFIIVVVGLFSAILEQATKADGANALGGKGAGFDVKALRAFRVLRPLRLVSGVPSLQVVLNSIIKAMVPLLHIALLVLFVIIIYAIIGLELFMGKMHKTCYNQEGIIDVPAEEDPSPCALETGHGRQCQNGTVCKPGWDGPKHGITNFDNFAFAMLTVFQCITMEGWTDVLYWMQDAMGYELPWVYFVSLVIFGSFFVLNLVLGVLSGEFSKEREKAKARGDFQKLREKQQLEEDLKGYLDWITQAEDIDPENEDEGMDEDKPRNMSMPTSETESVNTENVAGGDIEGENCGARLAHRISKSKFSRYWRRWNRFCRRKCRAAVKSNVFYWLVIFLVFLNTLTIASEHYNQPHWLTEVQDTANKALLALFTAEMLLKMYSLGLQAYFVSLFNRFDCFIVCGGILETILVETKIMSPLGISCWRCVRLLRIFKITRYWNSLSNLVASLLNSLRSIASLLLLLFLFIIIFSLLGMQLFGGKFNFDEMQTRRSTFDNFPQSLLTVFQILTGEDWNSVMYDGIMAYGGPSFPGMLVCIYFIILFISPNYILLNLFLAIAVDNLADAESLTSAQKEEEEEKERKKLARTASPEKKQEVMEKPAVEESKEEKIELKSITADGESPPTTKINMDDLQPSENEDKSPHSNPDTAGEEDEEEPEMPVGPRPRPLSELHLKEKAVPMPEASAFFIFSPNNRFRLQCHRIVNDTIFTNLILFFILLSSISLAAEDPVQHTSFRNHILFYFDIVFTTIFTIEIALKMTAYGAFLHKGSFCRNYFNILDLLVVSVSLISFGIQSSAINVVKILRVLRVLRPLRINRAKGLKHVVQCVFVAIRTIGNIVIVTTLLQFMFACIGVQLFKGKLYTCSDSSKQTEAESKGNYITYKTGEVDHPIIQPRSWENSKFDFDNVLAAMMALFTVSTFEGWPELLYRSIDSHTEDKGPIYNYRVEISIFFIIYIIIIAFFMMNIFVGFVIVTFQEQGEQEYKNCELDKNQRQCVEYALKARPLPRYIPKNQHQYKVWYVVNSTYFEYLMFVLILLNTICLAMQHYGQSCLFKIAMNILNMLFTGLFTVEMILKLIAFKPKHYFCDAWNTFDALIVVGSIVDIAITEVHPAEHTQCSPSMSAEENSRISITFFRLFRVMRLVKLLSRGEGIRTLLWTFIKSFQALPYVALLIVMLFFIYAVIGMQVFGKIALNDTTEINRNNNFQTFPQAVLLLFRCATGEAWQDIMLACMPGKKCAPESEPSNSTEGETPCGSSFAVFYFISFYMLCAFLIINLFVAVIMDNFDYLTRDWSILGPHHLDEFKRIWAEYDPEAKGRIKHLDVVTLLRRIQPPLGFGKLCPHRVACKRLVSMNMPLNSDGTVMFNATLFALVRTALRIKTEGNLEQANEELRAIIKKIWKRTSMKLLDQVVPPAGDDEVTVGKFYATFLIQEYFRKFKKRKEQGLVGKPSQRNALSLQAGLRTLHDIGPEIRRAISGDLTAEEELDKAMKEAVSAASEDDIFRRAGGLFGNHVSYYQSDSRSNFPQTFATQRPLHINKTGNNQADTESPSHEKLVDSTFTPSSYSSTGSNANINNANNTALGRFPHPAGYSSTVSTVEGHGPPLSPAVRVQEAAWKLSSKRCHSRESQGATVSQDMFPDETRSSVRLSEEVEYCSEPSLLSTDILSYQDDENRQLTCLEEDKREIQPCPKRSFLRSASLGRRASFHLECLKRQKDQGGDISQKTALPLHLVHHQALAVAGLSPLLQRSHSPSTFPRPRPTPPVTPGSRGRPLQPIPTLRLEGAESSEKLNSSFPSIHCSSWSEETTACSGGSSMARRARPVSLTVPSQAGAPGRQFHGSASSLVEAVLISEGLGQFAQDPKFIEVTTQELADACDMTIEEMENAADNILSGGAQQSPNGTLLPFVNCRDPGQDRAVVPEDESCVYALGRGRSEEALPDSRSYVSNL

In the case of `CCOCC(O)COc1ccc(NC(=O)CC[S+](C)C)cc1` (stereo not given), the concentration at half-maximal activity (AC50) (on Endothelin-1 receptor; in test [1]) was greater than 30 µM in each case.
Regarding `CCC[C@@]1(CCc2ccccc2)CC(O)=C([C@H](CC)c2cccc(NS(=O)(=O)c3ccc(C(F)(F)F)cn3)c2)C(=O)O1`, the concentration at half-maximal activity (AC50) (at Endothelin-1 receptor; in test [1]) was greater than 30 µM in each case.
With `CN(C)CCc1c[nH]c2ccc(CS(=O)(=O)N3CCCC3)cc12` [ALMOTRIPTAN], the AC50 (as a rule, the concentration giving half of the maximal activity seen) on Endothelin-1 receptor was greater than 30 µM.
Take `CC[N+](CC)(CCNC(=O)C(=O)NCC[N+](CC)(CC)Cc1ccccc1Cl)Cc1ccccc1Cl` [AMBENONIUM]: the half-maximal activity concentration (AC50) (in test [2]; at Endothelin-1 receptor; in test [1]) was greater than 30 µM each time.
Take `NCCCCCC(=O)O` [AMINOCAPROIC ACID]: the concentration at half-maximal activity (AC50) (in test [2]; in test [1]; on Glucocorticoid receptor) was greater than 10 µM in each case.
Consider `CN1CC2c3ccccc3Oc3ccc(Cl)cc3C2C1` (stereo not given) [ASENAPINE], for which the AC50 on Endothelin-1 receptor is greater than 30 µM; in test [1] it was 0.0097 µM.
In the same order, the values of `Cn1cnc2c(F)c(Nc3ccc(Br)cc3F)c(C(=O)NOCCO)cc21` [BINIMETINIB] are greater than 30 µM and greater than 30 µM.
For `CC(C)C[C@H](NC(=O)[C@H](Cc1ccccc1)NC(=O)c1cnccn1)B(O)O` [BORTEZOMIB], the AC50 (in test [2]; in test [1]; on Glucocorticoid receptor) was greater than 30 µM throughout.
For `C[C@H](CS)C(=O)N1CCC[C@H]1C(=O)O` [CAPTOPRIL], the AC50 is greater than 10 µM in test [2] and greater than 30 µM on Glucocorticoid receptor.
Turning to `C[C@H](CCC(=O)O)[C@H]1CC[C@H]2[C@@H]3[C@H](O)C[C@@H]4C[C@H](O)CC[C@]4(C)[C@H]3CC[C@]12C` [CHENODIOL], the AC50 (on Endothelin-1 receptor; in test [1]) was greater than 30 µM each time.
On to `O=C(O)[C@H]1/C(=C/CO)O[C@@H]2CC(=O)N21` [CLAVULANIC ACID], for which the AC50 (on Endothelin-1 receptor; in test [1]) was greater than 30 µM each time.
In the case of `C[C@H](Nc1ncnc2[nH]cnc12)c1cc2cccc(Cl)c2c(=O)n1-c1ccccc1` [DUVELISIB], the concentration at half-maximal activity (AC50) (at Acetylcholinesterase; at D(1A) dopamine receptor; at Endothelin-1 receptor; in test [1]; on Progesterone receptor; in test [3]) was greater than 30 µM throughout.
With `C[C@]12CCC(=O)C=C1CC[C@H]1[C@@H]3CC[C@](O)(C(=O)CO)[C@@]3(C)C[C@H](O)[C@@]12F` [FLUDROCORTISONE], the AC50 is greater than 10 µM in test [2], greater than 30 µM on Endothelin-1 receptor and greater than 10 µM in test [1].
As to `CCN(CCO)CCCC(C)Nc1ccnc2cc(Cl)ccc12` (stereo not given) [HYDROXYCHLOROQUINE], the concentration at half-maximal activity (AC50) (in test [2]; in test [1]; at Glucocorticoid receptor) was greater than 10 µM each time.
For `OCCOCCN1CCN(C(c2ccccc2)c2ccc(Cl)cc2)CC1` (stereo not given) [HYDROXYZINE], the half-maximal activity concentration (AC50) in test [2] was greater than 10 µM; at Endothelin-1 receptor, greater than 30 µM; in test [1] it was greater than 10 µM.
On to `C[C@@H](O)[C@H]1C(=O)N2C(C(=O)O)=C(SCCN=CN)C[C@H]12` [IMIPENEM ANHYDROUS], for which the half-maximal activity concentration (AC50) (at Endothelin-1 receptor; in test [1]) was greater than 300 µM throughout.
With `O=C(c1ccccc1)c1ccc2n1CCC2C(=O)O` (stereo not given) [KETOROLAC], the results for the AC50 in test [2] and in test [1] were greater than 30 µM and greater than 10 µM, respectively.
Turning to `Nc1nnc(-c2cccc(Cl)c2Cl)c(N)n1` [LAMOTRIGINE], the AC50 is greater than 30 µM on Endothelin-1 receptor and greater than 10 µM in test [1].
For the compound `O=C1[C@@H]2[C@H]3CC[C@H](C3)[C@@H]2C(=O)N1C[C@@H]1CCCC[C@H]1CN1CCN(c2nsc3ccccc23)CC1` [LURASIDONE], the concentration at half-maximal activity (AC50) on Acetylcholinesterase, at Endothelin-1 receptor and on Progesterone receptor was greater than 30 µM each time.
`CNC1(C)C2CCC(C2)C1(C)C` (stereo not given) [MECAMYLAMINE]: the concentration at half-maximal activity (AC50) (in test [2]; in test [1]; at Glucocorticoid receptor) was greater than 10 µM throughout.
With `CS(=O)(=O)Nc1ccc([N+](=O)[O-])cc1Oc1ccccc1` [NIMESULIDE], the AC50 was greater than 30 µM at Acetylcholinesterase; greater than 30 µM at D(1A) dopamine receptor; greater than 30 µM at Endothelin-1 receptor; greater than 30 µM at Progesterone receptor; 26.6 µM in test [3].
With `CO[C@@H]1[C@@H](OC(N)=O)[C@@H](O)[C@H](Oc2ccc3c(O)c(NC(=O)c4ccc(O)c(CC=C(C)C)c4)c(=O)oc3c2C)OC1(C)C` [NOVOBIOCIN], the AC50 (at Endothelin-1 receptor; in test [1]) was greater than 30 µM in each case.
Regarding `CCC1(c2ccccc2)C(=O)NCNC1=O` [PRIMIDONE], the AC50 (in test [2]; in test [1]; at Glucocorticoid receptor) was greater than 10 µM throughout.
For `CCOc1ccccc1OCCN[C@H](C)Cc1ccc(OC)c(S(N)(=O)=O)c1` [TAMSULOSIN], the AC50 is greater than 10 µM in test [2] and 0.02 µM in test [1].
On to `C[C@H](Cn1cnc2c(N)ncnc21)OCP(=O)(O)O` [TENOFOVIR ANHYDROUS], for which the AC50 (in test [2]; in test [1]; at Glucocorticoid receptor) was greater than 30 µM throughout.
As to `COc1cc2c(cc1OC)C1CC(=O)C(CC(C)C)CN1CC2` (stereo not given) [TETRABENAZINE], the half-maximal activity concentration (AC50) (at Endothelin-1 receptor; in test [1]) was greater than 30 µM each time.
As to `CC(C)(CO)c1cc2cc(NC(=O)C3(c4ccc5c(c4)OC(F)(F)O5)CC3)c(F)cc2n1C[C@@H](O)CO` [TEZACAFTOR], the figures for the concentration at half-maximal activity (AC50) (at Endothelin-1 receptor; in test [1]) were greater than 30 µM and greater than 10 µM, respectively.
`CN(C)CCN(Cc1ccccc1)c1ccccn1` [TRIPELENNAMINE]: the AC50 at Acetylcholinesterase was greater than 30 µM; in test [2], greater than 10 µM; at D(1A) dopamine receptor, 19.4 µM; in test [1], greater than 10 µM; on Glucocorticoid receptor it was greater than 10 µM; in test [3], 0.619 µM.
On to `c1cnc2cc3c(cc2n1)[C@@H]1CNC[C@H]3C1` [VARENICLINE], for which the half-maximal activity concentration (AC50) (at Endothelin-1 receptor; in test [1]) was greater than 30 µM throughout.
With `Nc1c2c(nc3ccccc13)CCCC2O` (stereo not given) [VELNACRINE], the concentration at half-maximal activity (AC50) (on Endothelin-1 receptor; in test [1]) was greater than 30 µM in each case.
